Experiments:
Assay in all cases: relative viability (nuclei count vs DMSO), 5 days (fraction); higher = more cells survive
JZL-184 + Trametinib = compound: C1CN(CCC1C(C2=CC3=C(C=C2)OCO3)(C4=CC5=C(C=C4)OCO5)O)C(=O)OC6=CC=C(C=C6)[N+](=O)[O-] [JZL-184] + CC(=O)Nc1cccc(-n2c(=O)n(C3CC3)c(=O)c3c(Nc4ccc(I)cc4F)n(C)c(=O)c(C)c32)c1 [Trametinib] (partner 0.02 µM)
Summary of the method: (§1)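 Cells from lung cancer lines were seeded into 1536-well plates and, one day later, dosed by pin tool. Treatments were either a single drug or a fixed dose of an anchor drug with five library-drug doses (not always all listed) in √10 steps. After 5 days, nuclei were stained in a one-step fixation (final 0.05% Triton X-100, 1% formaldehyde, 1 ug/ml Hoechst) and counted on 4× images, and relative viability is the treated-to-vehicle nuclei ratio, as the median of duplicate plates.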

JZL-184 + Navitoclax = compound: C1CN(CCC1C(C2=CC3=C(C=C2)OCO3)(C4=CC5=C(C=C4)OCO5)O)C(=O)OC6=CC=C(C=C6)[N+](=O)[O-] [JZL-184] + CC1(C)CCC(c2ccc(Cl)cc2)=C(CN2CCN(c3ccc(C(=O)NS(=O)(=O)c4ccc(N[C@H](CCN5CCOCC5)CSc5ccccc5)c(S(=O)(=O)C(F)(F)F)c4)cc3)CC2)C1 [Navitoclax] (partner 0.5 µM)
Summary of the method: as §1

JZL-184 + OSI-027 = compound: C1CN(CCC1C(C2=CC3=C(C=C2)OCO3)(C4=CC5=C(C=C4)OCO5)O)C(=O)OC6=CC=C(C=C6)[N+](=O)[O-] [JZL-184] + COc1cccc2cc(-c3nc([C@H]4CC[C@H](C(=O)O)CC4)n4ncnc(N)c34)[nH]c12 [OSI-027] (partner 0.5 µM)
Summary of the method: as §1

JZL-184 + Tozasertib = compound: C1CN(CCC1C(C2=CC3=C(C=C2)OCO3)(C4=CC5=C(C=C4)OCO5)O)C(=O)OC6=CC=C(C=C6)[N+](=O)[O-] [JZL-184] + Cc1cc(Nc2cc(N3CCN(C)CC3)nc(Sc3ccc(NC(=O)C4CC4)cc3)n2)n[nH]1 [Tozasertib] (partner 0.1 µM)
Summary of the method: as §1

JZL-184 + Olaparib = compound: C1CN(CCC1C(C2=CC3=C(C=C2)OCO3)(C4=CC5=C(C=C4)OCO5)O)C(=O)OC6=CC=C(C=C6)[N+](=O)[O-] [JZL-184] + O=C(c1cc(Cc2n[nH]c(=O)c3ccccc23)ccc1F)N1CCN(C(=O)C2CC2)CC1 [Olaparib] (partner 8 µM)
Summary of the method: as §1

| Cell Line | relative viability (JZL-184 + Trametinib; first compound 0.04 µM) | relative viability (JZL-184 + Trametinib; first compound 0.4 µM) | relative viability (JZL-184 + Trametinib; first compound 1.265 µM) | relative viability (JZL-184 + Trametinib; first compound 4 µM) | relative viability (JZL-184 + Navitoclax; first compound 0.04 µM) | relative viability (JZL-184 + Navitoclax; first compound 0.4 µM) | relative viability (JZL-184 + Navitoclax; first compound 1.265 µM) | relative viability (JZL-184 + Navitoclax; first compound 4 µM) | relative viability (JZL-184 + OSI-027; first compound 0.04 µM) | relative viability (JZL-184 + OSI-027; first compound 0.4 µM) | relative viability (JZL-184 + OSI-027; first compound 1.265 µM) | relative viability (JZL-184 + OSI-027; first compound 4 µM) | relative viability (JZL-184 + Tozasertib; first compound 0.04 µM) | relative viability (JZL-184 + Tozasertib; first compound 0.4 µM) | relative viability (JZL-184 + Tozasertib; first compound 1.265 µM) | relative viability (JZL-184 + Tozasertib; first compound 4 µM) | relative viability (JZL-184 + Olaparib; first compound 0.04 µM) | relative viability (JZL-184 + Olaparib; first compound 0.4 µM) | relative viability (JZL-184 + Olaparib; first compound 1.265 µM) | relative viability (JZL-184 + Olaparib; first compound 4 µM) |
| --- | --- | --- | --- | --- | --- | --- | --- | --- | --- | --- | --- | --- | --- | --- | --- | --- | --- | --- | --- | --- |
| NCI-H322M | 0.456 | 0.48 | 0.513 | 0.482 | 1.18 | 1.26 | 1.32 | 1.31 | 0.555 | 0.488 | 0.55 | 0.52 | 0.441 | 0.444 | 0.49 | 0.401 | 0.785 | 0.591 | 0.774 | 0.733 |
| NCI-H441 | 0.473 | 0.436 | 0.49 | 0.487 | 0.802 | 0.59 | 0.796 | 0.608 | 0.604 | 0.541 | 0.591 | 0.601 | 0.769 | 0.567 | 0.533 | 0.513 | 0.714 | 0.473 | 0.659 | 0.463 |
| NCI-H460 | 0.22 | 0.145 | 0.213 | 0.099 | 1.37 | 1.02 | 1.02 | 1.12 | 1.03 | 0.678 | 0.575 | 0.632 | 0.428 | 0.604 | 0.571 | 0.275 | 0.337 | 0.427 | 0.458 | 0.394 |
| NCI-H520 | 0.729 | 0.63 | 0.686 | 0.651 | 1.19 | 1.13 | 1.15 | 1.04 | 0.233 | 0.229 | 0.257 | 0.213 | 0.424 | 0.407 | 0.581 | 0.413 | 0.39 | 0.369 | 0.351 | 0.304 |

— the supplement of paper PMC10307832
